Test results reported in patent USRE38257E1, “Piperdine derivatives and hypotensives containing the same” (Ajinomoto Co., Inc., priority 1988, dated 2003).

System: male spontaneously hypertensive rats
Experiment: Decrease in systolic blood pressure in spontaneously hypertensive rats after intravenous bolus injection, indirect (tail-cuff) method
Format: in vivo, rat
Conditions: for Decrease in systolic blood pressure (mmHg) time after administration (hour) 0.5: 0.5 hour after administration; for Decrease in systolic blood pressure (mmHg) time after administration (hour) 4: 4 hours after administration
Experimental: As test animals, four male spontaneously hypertensive rats (weight 400 to 440 g) that were sufficiently adapted for feeding and in which hypertension was confirmed were used.
Physiological saline aqueous solution containing 2.5% Nicolle and 2.5% ethanol of sample was intravenously administered by bolus injection at a dose of 1 ml per 1 kg of body weight. Systolic blood pressure after administration was measured by the indirect (tail-cuff) method.

Structure (SMILES)	Decrease in systolic blood pressure (mmHg) time after administration (hour) 0.5 (dose 10 mg/kg i.v. bolus)	Decrease in systolic blood pressure (mmHg) time after administration (hour) 4 (dose 10 mg/kg i.v. bolus)	Decrease in systolic blood pressure (mmHg) time after administration (hour) 0.5 (dose 3 mg/kg i.v. bolus)	Decrease in systolic blood pressure (mmHg) time after administration (hour) 4 (dose 3 mg/kg i.v. bolus)
Cl.Cl.Nc1cccc(CCCN2CCC(=C3c4ccccc4C=Cc4ccccc43)CC2)c1 [Example 315, 1-(3-Aminophenyl)-3-(4-(5H-dibenzo[a,d]cyclohepten-5-ylidene)-1-piperidinyl)propane dihydrochloride]	−43 mmHg	−3 mmHg	–	–
Cl.O=C(CCN1CCC(=C2c3ccccc3C=Cc3ccccc32)CC1)OC1CCCCC1 [Example 236, Cyclohexyl 3-(4-(5H-Dibenzo[a,d]cyclohepten-5-ylidene)-1-piperidinyl)propionate hydrochloride]	−10 mmHg	−15 mmHg	–	–
COc1ccc(C(O)CCCN2CCC(=C3c4ccccc4C=Cc4ccccc43)CC2)cc1OC.Cl (stereo not shown) [Example 205, 4-(4-(5H-Dibenzo[a,d]cyclohepten-5-ylidene)-1-piperidinyl)-1-(3,4-dimethoxy)phenyl-1-hydroxybutane hydrochloride]	−22 mmHg	−4 mmHg	–	–
COC(=O)C1(CCCCN2CCC(=C3c4ccccc4C=Cc4ccccc43)CC2)CCCCC1.Cl [Example 219, 1-(4-(4-(5H-Dibenzo[a,d]cyclohepten-5-ylidene)-1-piperidinyl)-butyl)-1-methoxycarbonylcyclohexane hydrochloride]	−104 mmHg	−33 mmHg	–	–
COC(=O)c1ccccc1C=CCN1CCC(=C2c3ccccc3C=Cc3ccccc32)CC1.Cl [Example 374, 4-(5H-Dibenzo[a,d]cyclohepten-5-ylidene)-1-(2-methoxycarbonylcinnamyl)piperidine hydrochloride]	–	–	−119 mmHg	11 mmHg
